Results as given in ChEMBL document CHEMBL1147282, “3 beta-O-palmityl longispinogenin from Trichocereus chilensis” (J Nat Prod, 1989).

Experiments:
Artemia = assay: Toxicity in brine shrimp; assay type: organism-based; settings: in vivo
A549 = assay: Cytotoxicity against human A549 cells; assay type: functional; settings: read-out: ED50 (the source's name)
HT-29 = assay: Cytotoxicity against human HT-29 cells; assay type: functional; settings: read-out: ED50 (the source's name)
MCF7 = assay: Cytotoxicity against human MCF7 cells; assay type: functional; settings: read-out: ED50 (the source's name)

CCCCCCCCCCCCCCCC(=O)O[C@H]1CC[C@]2(C)[C@H]3CC=C4[C@@H]5CC(C)(C)CC[C@]5(CO)[C@@H](O)C[C@@]4(C)[C@]3(C)CC[C@H]2C1(C)C
LC50 (Artemia): > 1000 ppm
EC50 (A549): > 10 µg/mL
EC50 (HT-29): > 10 µg/mL
EC50 (MCF7): > 10 µg/mL
